# In patent US10383938B2 (priority 2010, dated 2019):
# Columns and labels:
# [1] = tested on: interferon-gamma (IFNgamma); set-up: species or system mice; conditions: mouse, in vivo
# [2] = tested on: systemic tumor necrosis factor (TNF); assay: Systemic TNF induction in vivo after subcutaneous injection (Example 4); conditions: mice
# Method: The resiquimod preparation was made as an aqueous suspension in PBS.
# At one hour and at three hours post dose, the mice were bled and systemic TNF was measured in the serum (pg/mL) by ELISA assay. The results are presented as the geometric means obtained for each group of five animals. […] This can be important in providing localized immune system enhancement without systemic TNF side effects.
# [3] = tested on: human peripheral mononuclear cells (PBMC); assay: TNF production in human PBMC (Example 7); assay type: cell-based; conditions: for TNF: human PBMC, overnight at 37° C., ELISA
# Method: The human peripheral blood mononuclear cells were prepared from human volunteers and placed in culture in 96 well microtiter plates. […] The cells were then incubated overnight at 37° C. The medium was removed and TNF concentration (ng/mL) was measured by ELISA assay (Table 6).
# TNF protein = assay: Local in vivo activity: serum TNF protein by ELISA (Example 11); set-up: species or system Balb/c male mice; conditions: s.c. 1.0 mg/kg, mean (s.d.) of 4 mice, not detected = less than 10 pg/ml
# Method: (§1) The final dose for either compound was 1.0 mg/kg. At each time point, the mice were bled, sacrificed, and the draining axial and brachial lymph nodes were removed and placed in RNA preservation fluid (RNA later reagent obtained from Ambion Corporation, Austin, Tex.). Serum samples were analyzed for TNF protein concentration (pg/ml) by ELISA as a measure of systemic presence of this cytokine. The draining lymph nodes were processed for measurement of TNF mRNA gene expression by quantitative PCR (7900HT Thermocycler obtained from Applied Biosystems, Carlsbad, Calif.). The data reported (Table 10) is the mean+/−standard deviation (s.d.) for each group. The “not detected” level for serum TNF concentration was less than 10 pg/ml.
# TNF mRNA = assay: Local in vivo activity: TNF mRNA gene expression in draining lymph nodes by quantitative PCR (Example 11); set-up: species or system Balb/c male mice; conditions: s.c. 1.0 mg/kg; for TNF mRNA Gene Expression in Lymph Nodes [fold increase versus control (s.d.)]: draining axial and brachial lymph nodes
# Method: as §1
Structure (SMILES),"In Vitro Challenge of Isolated Spleenocytes, IFNgamma, Control PBS Challenge [1]","In Vitro Challenge of Isolated Spleenocytes, IFNgamma, HA Antigen Challenge [1]",Serum TNF [pg/ml (s.d.)] (TNF protein; 1 hour post dose),Serum TNF [pg/ml (s.d.)] (TNF protein; 3 hours post dose),Serum TNF [pg/ml (s.d.)] (TNF protein; 6 hours post dose),TNF mRNA Gene Expression in Lymph Nodes [fold increase versus control (s.d.)] (TNF mRNA; 1 hour post dose),TNF mRNA Gene Expression in Lymph Nodes [fold increase versus control (s.d.)] (TNF mRNA; 3 hours post dose),TNF mRNA Gene Expression in Lymph Nodes [fold increase versus control (s.d.)] (TNF mRNA; 6 hours post dose),TNF mRNA Gene Expression in Lymph Nodes [fold increase versus control (s.d.)] (TNF mRNA; 18 hours post dose),also measured
"CCCCCCCCCCCCCCCCCC(=O)NCCCCOn1c(CCCC)nc2c(N)nc3ccccc3c21 [N-(4-{[4-amino-2-butyl-1H-imidazo[4,5-c]quinolin-1-yl]oxy}butyl)octadecanamide]",4.82 pg/mL,293.51 pg/mL,not detected,not detected,not detected,0.65 (0.04) fold increase versus control,1.62 (1.23) fold increase versus control,7.23 (2.07) fold increase versus control,1.55 (0.28) fold increase versus control,"systemic TNF response (in words) ([2]; subcutaneous injection, 1 mg/Kg, summary of Table 3): does not induce a systemic TNF response; TNF ([3]; 0.014 μM): 0.13 ng/mL; TNF ([3]; 0.043 μM): 0.17 ng/mL; TNF ([3]; 0.13 μM): 0.35 ng/mL; TNF ([3]; 0.37 μM): 2.51 ng/mL; TNF ([3]; 1.1 μM): 7.07 ng/mL; TNF ([3]; 3.3 μM): 28.73 ng/mL; TNF ([3]; 10 μM): 31.46 ng/mL; TNF ([3]; 30 μM): 29.47 ng/mL; induction of TNF-α production (in words) ([3]; summary statement, ""as described above""): induce the production of TNF-α; Serum TNF [pg/ml (s.d.)] (TNF protein; 18 hours post dose): not detected; cytokine induction effects, local versus systemic (in words) (TNF mRNA; TNF mRNA induced in draining lymph nodes without TNF protein in serum): primarily local"
"CCOCc1nc2c(N)nc3ccccc3c2n1CC(C)(C)O [Resiquimod, resiquimod, reference compound]",3.84 pg/mL,91.88 pg/mL,4082 (873) pg/ml,107 (35) pg/ml,18 (4) pg/ml,14.19 (3.83) fold increase versus control,4.82 (0.70) fold increase versus control,1.39 (0.27) fold increase versus control,0.90 (0.23) fold increase versus control,"TNF concentration at Times Following Treatment, 1 hour ([2]; s.c. 1 mg/Kg, serum at 1 hour post dose, geometric mean of 5 animals): 1140.41 pg/mL; TNF concentration at Times Following Treatment, 3 hour ([2]; s.c. 1 mg/Kg, serum at 3 hours post dose, geometric mean of 5 animals): <5 pg/mL"
